Experimental data as given in the supplement of paper PMC9663587.

Legend:
Assay in all cases: increase in dead-cell fraction, 72 h; higher = more death;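 further: breast cancer cell lines in 384-well plates, stained with Hoechst plus LIVE/DEAD far red dye and imaged, cells above an LDR intensity threshold counted dead, Hoechst-negative corpses included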
YKL-5-124 = compound: C=CC(=O)Nc1ccc(C(=O)Nc2[nH]nc3c2CN(C(=O)N[C@H](CN(C)C)c2ccccc2)C3(C)C)cc1 [YKL-5-124]
BSJ-03-123 = compound: CC(=O)c1c(C)c2cnc(Nc3ccc(N4CCN(CCOCCOCCOCCNC(=O)COc5cccc6c5C(=O)N(C5CCC(=O)NC5=O)C6=O)CC4)cn3)nc2n(C2CCCC2)c1=O [BSJ-03-123]
[1] = compound: CC(=O)c1c(C)c2cnc(Nc3ccc(N4CCNCC4)cn3)nc2n(C2CCCC2)c1=O
[2] = compound: CCN1CCN(Cc2ccc(Nc3ncc(F)c(-c4cc(F)c5nc(C)n(C(C)C)c5c4)n3)nc2)CC1
Neratinib/HKI272 = compound: CCOc1cc2ncc(C#N)c(Nc3ccc(OCc4ccccn4)c(Cl)c3)c2cc1NC(=O)/C=C/CN(C)C [Neratinib/HKI272]
[3] = compound: CCc1cnn2c(NCc3ccc[n+]([O-])c3)cc(N3CCCC[C@H]3CCO)nc12

Cell Line: PDX1328
- increase in dead-cell fraction (YKL-5-124; 0.001 µM): 0.0057
- increase in dead-cell fraction (YKL-5-124; 0.003162 µM): 0.0011
- increase in dead-cell fraction (YKL-5-124; 0.01 µM): 0.0128
- increase in dead-cell fraction (YKL-5-124; 0.03162 µM): 0.0082
- increase in dead-cell fraction (YKL-5-124; 0.1 µM): 0.0045
- increase in dead-cell fraction (YKL-5-124; 0.3162 µM): 0.0085
- increase in dead-cell fraction (YKL-5-124; 1 µM): 0.0121
- increase in dead-cell fraction (YKL-5-124; 3.162 µM): 0.0229
- increase in dead-cell fraction (YKL-5-124; 10 µM): 0.0663
- increase in dead-cell fraction (BSJ-03-123; 0.001 µM): -0.0042
- increase in dead-cell fraction (BSJ-03-123; 0.003162 µM): -0.0045
- increase in dead-cell fraction (BSJ-03-123; 0.01 µM): -0.0076
- increase in dead-cell fraction (BSJ-03-123; 0.03162 µM): -0.0013
- increase in dead-cell fraction (BSJ-03-123; 0.1 µM): -0.006
- increase in dead-cell fraction (BSJ-03-123; 0.3162 µM): -0.0065
- increase in dead-cell fraction (BSJ-03-123; 1 µM): -0.0104
- increase in dead-cell fraction (BSJ-03-123; 3.162 µM): -0.0015
- increase in dead-cell fraction (BSJ-03-123; 10 µM): 0.0283
- increase in dead-cell fraction ([1]; 0.0003162 µM): -0.0028
- increase in dead-cell fraction ([1]; 0.001 µM): 0.0004
- increase in dead-cell fraction ([1]; 0.003162 µM): -0.0023
- increase in dead-cell fraction ([1]; 0.01 µM): 0.0019
- increase in dead-cell fraction ([1]; 0.03162 µM): -0.005
- increase in dead-cell fraction ([1]; 0.1 µM): 0.0014
- increase in dead-cell fraction ([1]; 0.3162 µM): -0.0028
- increase in dead-cell fraction ([1]; 1 µM): 0.0026
- increase in dead-cell fraction ([1]; 3.162 µM): 0.0055
- increase in dead-cell fraction ([2]; 0.001 µM): 0.0018
- increase in dead-cell fraction ([2]; 0.003162 µM): -0.0052
- increase in dead-cell fraction ([2]; 0.01 µM): 0.0039
- increase in dead-cell fraction ([2]; 0.03162 µM): 0.0167
- increase in dead-cell fraction ([2]; 0.1 µM): 0.0116
- increase in dead-cell fraction ([2]; 0.3162 µM): 0.0089
- increase in dead-cell fraction ([2]; 1 µM): 0.0192
- increase in dead-cell fraction ([2]; 3.162 µM): 0.029
- increase in dead-cell fraction ([2]; 10 µM): 0.475
- increase in dead-cell fraction (Neratinib/HKI272; 0.0003162 µM): 0.0026
- increase in dead-cell fraction (Neratinib/HKI272; 0.001 µM): 0.0005
- increase in dead-cell fraction (Neratinib/HKI272; 0.003162 µM): 0.002
- increase in dead-cell fraction (Neratinib/HKI272; 0.01 µM): -0.0007
- increase in dead-cell fraction (Neratinib/HKI272; 0.03162 µM): 0.0044
- increase in dead-cell fraction (Neratinib/HKI272; 0.1 µM): 0.0093
- increase in dead-cell fraction (Neratinib/HKI272; 0.3162 µM): 0.0044
- increase in dead-cell fraction (Neratinib/HKI272; 1 µM): 0.0158
- increase in dead-cell fraction (Neratinib/HKI272; 3.162 µM): 0.0733
- increase in dead-cell fraction ([3]; 0.0001 µM): -0.0005
- increase in dead-cell fraction ([3]; 0.0003162 µM): 0.0028
- increase in dead-cell fraction ([3]; 0.001 µM): -0.0033
- increase in dead-cell fraction ([3]; 0.003162 µM): -0.0053
- increase in dead-cell fraction ([3]; 0.01 µM): -0.0021
- increase in dead-cell fraction ([3]; 0.03162 µM): 0.113
- increase in dead-cell fraction ([3]; 0.1 µM): 0.187
- increase in dead-cell fraction ([3]; 0.3162 µM): 0.19
- increase in dead-cell fraction ([3]; 1 µM): 0.213
